Reference: the supplement of paper PMC11061612

Assays:
[1] = tested on: BxPC-3 (Pancreatic Carcinoma); test: Bliss excess, mean over the matrix (fraction); higher = more synergy
How it was run: (§1)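 Bliss excess equals the observed combination effect minus the expected value EA + EB − EA·EB, where EA and EB are the effects of each agent alone. Combination Emax is the second-highest inhibition within the matrix. Inhibition was scaled from CellTiter-Glo 2.0 luminescence, with 0 set by vehicle wells and 1 by blank wells, after 72 hours of two-drug dosing of cells plated in 1536-well plates.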

[2] = tested on: C-33-A (Cervical Carcinoma); test: as above
How it was run: as §1

ES6 (Ewing's Sarcoma) = test: as above
How it was run: as §1

[3] = tested on: HPAF-II (Pancreatic Carcinoma); test: as above
How it was run: as §1

KALS-1 (Glioblastoma) = test: as above
How it was run: as §1

[4] = tested on: KP-4 (Pancreatic Carcinoma); test: as above
How it was run: as §1

[5] = tested on: LCLC-103H (Non-Small Cell Lung Carcinoma); test: as above
How it was run: as §1

[6] = tested on: LS-1034 (Colorectal Carcinoma); test: as above
How it was run: as §1

[7] = tested on: MDA-MB-415 (Breast Carcinoma); test: as above
How it was run: as §1

[8] = tested on: MONO-MAC-6 (Acute Myeloid Leukemia); test: as above
How it was run: as §1

[9] = tested on: MS-1 (Small Cell Lung Carcinoma); test: as above
How it was run: as §1

[10] = tested on: RCC-JW (Kidney Carcinoma); test: as above
How it was run: as §1

SK-N-SH (Neuroblastoma) = test: as above
How it was run: as §1

[11] = tested on: KP-4 (Pancreatic Carcinoma); test: combination Emax (second highest fraction inhibited in the dose matrix, 72 h); higher = more inhibition; extreme values may be limits of the assay
How it was run: as §1

[12] = tested on: NCI-H1876 (Small Cell Lung Carcinoma); test: Bliss excess, mean over the matrix (fraction); higher = more synergy
How it was run: as §1

[13] = tested on: SNU-407 (Colorectal Carcinoma); test: as above
How it was run: as §1

[14] = tested on: NCI-H1876 (Small Cell Lung Carcinoma); test: combination Emax (second highest fraction inhibited in the dose matrix, 72 h); higher = more inhibition; extreme values may be limits of the assay
How it was run: as §1

[15] = tested on: NCI-H596 (Other Solid Carcinomas); test: as above
How it was run: as §1

[16] = tested on: OAW-28 (Ovarian Carcinoma); test: as above
How it was run: as §1

[17] = tested on: SNU-407 (Colorectal Carcinoma); test: as above
How it was run: as §1

SMILES | Bliss excess [1] | Bliss excess [2] | Bliss excess (ES6 (Ewing's Sarcoma)) | Bliss excess [3] | Bliss excess (KALS-1 (Glioblastoma)) | Bliss excess [4] | Bliss excess [5] | Bliss excess [6] | Bliss excess [7] | Bliss excess [8] | Bliss excess [9] | Bliss excess [10] | Bliss excess (SK-N-SH (Neuroblastoma)) | combination Emax [11] | Bliss excess [12] | Bliss excess [13] | combination Emax [14] | combination Emax [15] | combination Emax [16] | combination Emax [17]
CS(=O)(=O)CCNCc1ccc(-c2ccc3ncnc(Nc4ccc(OCc5cccc(F)c5)c(Cl)c4)c3c2)o1 [Lapatinib] + Cn1cnc2c(F)c(Nc3ccc(Br)cc3Cl)c(C(=O)NOCCO)cc21 [Selumetinib] (first compound max 10 µM, 7x7, partner max 10 µM) | 0.0703 | 0.0282 | -0.0159 | 0.109 | 0.0025 | 0.0641 | -0.0744 | -0.0089 | -0.0575 | 0.0017 | -0.0277 | -0.0525 | -0.0123 | 0.382 |  |  |  |  |  | 
CS(=O)(=O)CCNCc1ccc(-c2ccc3ncnc(Nc4ccc(OCc5cccc(F)c5)c(Cl)c4)c3c2)o1 [Lapatinib] + NC1(c2ccc(-c3nc4ccn5c(=O)[nH]nc5c4cc3-c3ccccc3)cc2)CCC1 [MK-2206] (first compound max 10 µM, 7x7, partner max 10 µM) | 0.0263 | 0.0295 | -0.0408 | 0.0089 | -0.004 | -0.0389 | -0.0428 | 0.0301 | 0.0306 | 0.0302 | 0.0368 | -0.0285 | -0.0194 | 0.275 | 0.0885 | 0.0808 | 0.948 | 0.822 | 0.898 | 0.808
O=C(c1cc(Cc2n[nH]c(=O)c3ccccc23)ccc1F)N1CCN(C(=O)C2CC2)CC1 [Olaparib] + CC1(C)CCC(CN2CCN(c3ccc(C(=O)NS(=O)(=O)c4ccc(NCC5CCOCC5)c([N+](=O)[O-])c4)c(Oc4cnc5[nH]ccc5c4)c3)CC2)=C(c2ccc(Cl)cc2)C1 [Venetoclax] (first compound max 10 µM, 7x7, partner max 1 µM) | -0.0569 | -0.0389 | -0.0549 | -0.0183 | -0.0353 | -0.0331 | -0.0212 | -0.0413 | -0.064 | 0.0368 | -0.0266 | -0.045 | 0.0412 | 0.135 |  |  |  |  |  | 
O=C(c1cc(Cc2n[nH]c(=O)c3ccccc23)ccc1F)N1CCN(C(=O)C2CC2)CC1 [Olaparib] + CN(CC[C@H](CSC1=CC=CC=C1)NC2=C(C=C(C=C2)S(=O)(=O)NC(=O)C3=CC=C(C=C3)N4CCC(CC4)[C@H](C5=CC=CC=C5C6=CC=C(C=C6)Cl)O)S(=O)(=O)C(F)(F)F)CCO [AZD4320] (first compound max 10 µM, 7x7, partner max 1 µM) | -0.0424 | 0.0014 | -0.0216 | -0.0399 | -0.0432 | -0.0113 | -0.0339 | -0.0388 | -0.0718 | 0.0291 | 0.0013 | -0.0532 | 0.0025 | 0.155 |  |  |  |  |  | 
O=C(c1cc(Cc2n[nH]c(=O)c3ccccc23)ccc1F)N1CCN(C(=O)C2CC2)CC1 [Olaparib] + COc1nnc2ccc(N3CCC(c4ccc(OCCN5CCN(C)C(=O)[C@H]5C)cc4)CC3)nn12 [AZD5153] (first compound max 10 µM, 7x7, partner max 1 µM) | -0.106 | -0.0461 | -0.0941 | 0.0018 | -0.0141 | -0.0266 | -0.0369 | -0.0339 | -0.0222 | -0.0333 | -0.0426 | -0.143 | -0.0402 | 0.532 |  |  |  |  |  | 
O=C(c1cc(Cc2n[nH]c(=O)c3ccccc23)ccc1F)N1CCN(C(=O)C2CC2)CC1 [Olaparib] + Cc1c2c(nn1C)CSCc1cc(n(C)n1)CSc1cc(c3ccccc3c1)OCCCc1c(C(=O)O)n(C)c3c-2c(Cl)ccc13 [AZD5991] (first compound max 10 µM, 7x7, partner max 1 µM) | -0.066 | -0.0224 | -0.0431 | -0.0366 | -0.0158 | -0.0386 | -0.0206 | -0.0414 | -0.0838 | 0.0434 | -0.0481 | -0.0125 | -0.0445 | 0.113 |  |  |  |  |  | 
N#Cc1cnc(Nc2cc(NC[C@H]3CNCCO3)c(C(F)(F)F)cn2)cn1 [SRA737] + C=CCn1c(=O)c2cnc(Nc3ccc(N4CCN(C)CC4)cc3)nc2n1-c1cccc(C(C)(C)O)n1 [AZD1775] (first compound max 10 µM, partner max 1 µM) | 0.0061 | 0.0919 | 0.0022 | 0.0176 | 0.0439 | 0.0595 | 0.0146 | 0.142 | 0.0133 | 0.0824 | 0.078 | -0.002 | 0.0281 | 0.597 |  |  |  |  |  | 
N#Cc1cnc(Nc2cc(NC[C@H]3CNCCO3)c(C(F)(F)F)cn2)cn1 [SRA737] + O=c1[nH]cc(F)c(=O)[nH]1 [5-Fluorouracil] (first compound max 10 µM, 7x7, partner max 20 µM) | -0.0019 | 0.0006 | -0.0508 | 0.036 | 0.0085 | 0.0334 | 0.0215 | 0.0936 | 0.057 | 0.0181 | -0.0821 | -0.0355 | -0.0499 | 0.376 |  |  |  |  |  | 
Cc1nc(-c2cn3c(n2)-c2ccc(-c4cnn(C(C)(C)C(N)=O)c4)cc2OCC3)n(C(C)C)n1 [Taselisib] + O=C(Nc1ccc2[nH]nc(-c3ccncc3)c2c1)[C@@H]1CCN(CC(=O)N2CCN(c3ccc(-c4ncccn4)cc3)CC2)C1 [SCH772984] (first compound max 10 µM, 7x7, partner max 5 µM) | 0.133 | 0.0551 | -0.0318 | 0.224 | -0.0253 | 0.215 | 0.0056 | 0.0307 | -0.0012 | 0.0832 | 0.0145 | -0.0167 | 0.0498 | 0.776 |  |  |  |  |  | 
CC1(C)CCC(CN2CCN(c3ccc(C(=O)NS(=O)(=O)c4ccc(NCC5CCOCC5)c([N+](=O)[O-])c4)c(Oc4cnc5[nH]ccc5c4)c3)CC2)=C(c2ccc(Cl)cc2)C1 [Venetoclax] + CS(=O)(=O)CCNCc1ccc(-c2ccc3ncnc(Nc4ccc(OCc5cccc(F)c5)c(Cl)c4)c3c2)o1 [Lapatinib] (first compound max 1 µM, 7x7, partner max 10 µM) | -0.0299 | -0.0001 | -0.0675 | -0.0355 | -0.0431 | -0.0168 | -0.0319 | -0.0412 | -0.047 | -0.0371 | -0.0021 | -0.0229 | 0.008 | 0.0862 |  |  |  |  |  | 
